Measured values published in ChEMBL document CHEMBL5226354, “The Medicinal Chemistry and Therapeutic Potential of LRH-1 Modulators” (J Med Chem, 2021).

Assays:
[1] = target: T1, Nuclear receptor subfamily 5 group A member 2 (Homo sapiens, UniProt O00482); test: Inhibition of full length LRH1 in HEK293T cells at 10 uM incubated for 20 hrs by luciferase reporter assay relative to control; format: cell-based
[2] = target: T1, Nuclear receptor subfamily 5 group A member 2; test: Inhibition of full length LRH1 transfected in HEK293T cells incubated for 20 hrs by luciferase reporter assay; format: cell-based
[3] = target: T1, Nuclear receptor subfamily 5 group A member 2; test: Antagonist activity at human LRH-1
[4] = target: T1, Nuclear receptor subfamily 5 group A member 2; test: Inhibition of full length LRH1 in HEK293T cells at 550 nM incubated for 20 hrs by luciferase reporter assay relative to control; format: cell-based
[5] = target: T1, Nuclear receptor subfamily 5 group A member 2; test: Antagonist activity at human recombinant LRH-1 LBD ([…] to 541 residues)

T1 sequence (O00482 whole entry): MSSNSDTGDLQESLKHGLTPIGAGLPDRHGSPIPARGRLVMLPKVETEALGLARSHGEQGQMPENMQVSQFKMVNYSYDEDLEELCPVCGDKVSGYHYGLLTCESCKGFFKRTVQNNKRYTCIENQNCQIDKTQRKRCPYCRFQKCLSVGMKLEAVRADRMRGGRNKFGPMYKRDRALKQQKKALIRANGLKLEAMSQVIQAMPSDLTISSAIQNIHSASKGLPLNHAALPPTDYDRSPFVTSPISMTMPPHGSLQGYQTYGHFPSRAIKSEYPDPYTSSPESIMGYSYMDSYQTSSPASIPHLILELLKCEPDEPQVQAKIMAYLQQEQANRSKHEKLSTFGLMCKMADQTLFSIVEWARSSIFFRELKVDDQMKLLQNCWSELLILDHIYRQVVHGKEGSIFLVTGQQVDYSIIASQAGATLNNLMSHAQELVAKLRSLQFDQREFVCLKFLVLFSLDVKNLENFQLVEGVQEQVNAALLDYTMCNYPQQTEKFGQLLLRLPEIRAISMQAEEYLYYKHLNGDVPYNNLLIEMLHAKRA

| Compound | IC50 [2] | IC50 [3] | further results |
| --- | --- | --- | --- |
| O=c1cc(N2CCN(c3cccc(Cl)c3)CC2)[nH]c(=O)n1C1CCCCC1 | 3.7 µM | – | inhibition [1]: 64% |
| O=c1cc(N2CCN(c3cccc(C(F)(F)F)c3)CC2)[nH]c(=O)n1C1CCCCC1 | 0.32 µM | – | inhibition [4]: 40% |
| O=C(c1ccc(OCCN2CCCCC2)cc1)c1c(-c2ccc(O)cc2)sc2c(C(=O)c3ccc(OCCN4CCCCC4)cc3)c(O)ccc12 | – | – | IC50 [5]: 3.1 µM |

Now from value to compound, other results behind:

| IC50 [2] | IC50 [3] | Compound | further results |
| --- | --- | --- | --- |
| – | 5 µM | CC(=O)c1cccc(-c2cccc(-c3ccn(CCN4CCOCC4)n3)c2)c1 | – |
| – | 6 µM | Cc1nc(N(C)C)nc(-c2cccc(-c3ccn(CCN(C)C)n3)c2)c1C | – |
